Measurements from PubChem BioAssay AID2060886 (Molecular Pharmacology Branch, DTP, NCI, 2025).

Tested on: 653999-131-R-J2-PDC complex spheroids, growth inhibition
Test: Anticancer human tumor 653999-131-R-J2-PDC patient-derived lung adenocarcinoma cell line growth inhibition [RAS]
Details: for IC50: curve of first compound; for viability, T/C: stronger effect = lower value
Procedure, shortened: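 Tumour cells grown as complex spheroids with HUVEC endothelial cells and mesenchymal stem cells, treated with RAS pathway inhibitor combinations. Each agent spans half-log steps from near clinical Cmax, or 10 microM where Cmax is unknown.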
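Also: spheroids exposed to the agents for seven days before the readout.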

For `C=CC(=O)Nc1cc(Nc2nccc(-c3cn(C)c4ccccc34)n2)c(OC)cc1N(C)CCN(C)C` + C#Cc1c(F)ccc2cc(O)cc(-c3ncc4c(N5CC6CCC(C5)N6)nc(OCC56CCCN5CC(F)C6)nc4c3F)c12, the IC50 (second compound 0.0316 µM) was > 1000 nM, the IC50 (second compound 0.1 µM) was 613 nM and the IC50 (second compound 0.316 µM) was 61.7 nM. For the same molecule, the IC50 (second compound 1 µM) was 17.7 nM, the IC50 (second compound 3.16 µM) was < 3.16 nM and the IC50 (second compound 10 µM) was < 3.16 nM. The viability, T/C (second compound 0.0316 µM, first compound 0.00316 µM) was 96.1%, the viability, T/C (second compound 0.0316 µM, first compound 0.01 µM) was 80.7% and the viability, T/C (second compound 0.0316 µM, first compound 0.0316 µM) was 82.9%. The viability, T/C (second compound 0.0316 µM, first compound 0.1 µM) was 68.3%, the viability, T/C (second compound 0.0316 µM, first compound 0.316 µM) was 55.5% and the viability, T/C (second compound 0.0316 µM, first compound 1 µM) was 63.3%. It also gave a viability, T/C (second compound 0.1 µM, first compound 0.00316 µM) of 89.4%, a viability, T/C (second compound 0.1 µM, first compound 0.01 µM) of 90.8% and a viability, T/C (second compound 0.1 µM, first compound 0.0316 µM) of 57.7%. The viability, T/C (second compound 0.1 µM, first compound 0.1 µM) was 69.9%, the viability, T/C (second compound 0.1 µM, first compound 0.316 µM) was 57.2% and the viability, T/C (second compound 0.1 µM, first compound 1 µM) was 44.3%. The viability, T/C (second compound 0.316 µM, first compound 0.00316 µM) was 77%, the viability, T/C (second compound 0.316 µM, first compound 0.01 µM) was 95% and the viability, T/C (second compound 0.316 µM, first compound 0.0316 µM) was 65.1%. It also gave a viability, T/C (second compound 0.316 µM, first compound 0.1 µM) of 37.1%, a viability, T/C (second compound 0.316 µM, first compound 0.316 µM) of 40.9% and a viability, T/C (second compound 0.316 µM, first compound 1 µM) of 39.2%. The viability, T/C (second compound 1 µM, first compound 0.00316 µM) was 60.9%, the viability, T/C (second compound 1 µM, first compound 0.01 µM) was 53.7% and the viability, T/C (second compound 1 µM, first compound 0.0316 µM) was 43.2%. The viability, T/C (second compound 1 µM, first compound 0.1 µM) was 42.8%, the viability, T/C (second compound 1 µM, first compound 0.316 µM) was 36.1% and the viability, T/C (second compound 1 µM, first compound 1 µM) was 28.1%. It also gave a viability, T/C (second compound 3.16 µM, first compound 0.00316 µM) of 45.6%, a viability, T/C (second compound 3.16 µM, first compound 0.01 µM) of 35.2% and a viability, T/C (second compound 3.16 µM, first compound 0.0316 µM) of 38.3%. It also gave a viability, T/C (second compound 3.16 µM, first compound 0.1 µM) of 25.9%, a viability, T/C (second compound 3.16 µM, first compound 0.316 µM) of 22.8% and a viability, T/C (second compound 3.16 µM, first compound 1 µM) of 19.6%. The viability, T/C (second compound 10 µM, first compound 0.00316 µM) was 35.2%, the viability, T/C (second compound 10 µM, first compound 0.01 µM) was 27.7% and the viability, T/C (second compound 10 µM, first compound 0.0316 µM) was 26.4%. It also gave a viability, T/C (second compound 10 µM, first compound 0.1 µM) of 15.5%, a viability, T/C (second compound 10 µM, first compound 0.316 µM) of 15.2% and a viability, T/C (second compound 10 µM, first compound 1 µM) of 10.5%.

For `CC(Nc1ccc2c(c1)OCCn1cc(N3C(=O)OCC3C(F)F)nc1-2)C(N)=O` (centres undefined) + CCn1c(-c2cc(N3CCN(C)CC3)cnc2C(C)OC)c2c3cc(ccc31)-c1csc(n1)CC(NC(=O)C1CC1C)C(=O)N1CCCC(N1)C(=O)OCC(C)(C)C2, the IC50 (second compound 0.000949 µM) was 160 nM, the IC50 (second compound 0.003 µM) was 152 nM and the IC50 (second compound 0.00949 µM) was < 31.6 nM. The IC50 (second compound 0.03 µM) was < 31.6 nM, the IC50 (second compound 0.0949 µM) was < 31.6 nM and the IC50 (second compound 0.3 µM) was < 31.6 nM. For the same molecule, the viability, T/C (second compound 0.000949 µM, first compound 0.0316 µM) was 72.8%, the viability, T/C (second compound 0.000949 µM, first compound 0.1 µM) was 57.9% and the viability, T/C (second compound 0.000949 µM, first compound 0.316 µM) was 37.4%. The viability, T/C (second compound 0.000949 µM, first compound 1 µM) was 33.5%, the viability, T/C (second compound 0.000949 µM, first compound 3.16 µM) was 24.9% and the viability, T/C (second compound 0.000949 µM, first compound 10 µM) was 18.5%. It also gave a viability, T/C (second compound 0.003 µM, first compound 0.0316 µM) of 60%, a viability, T/C (second compound 0.003 µM, first compound 0.1 µM) of 56.5% and a viability, T/C (second compound 0.003 µM, first compound 0.316 µM) of 38.9%. For the same molecule, the viability, T/C (second compound 0.003 µM, first compound 1 µM) was 35.6%, the viability, T/C (second compound 0.003 µM, first compound 3.16 µM) was 17.2% and the viability, T/C (second compound 0.003 µM, first compound 10 µM) was 13.2%. For the same molecule, the viability, T/C (second compound 0.00949 µM, first compound 0.0316 µM) was 37.8%, the viability, T/C (second compound 0.00949 µM, first compound 0.1 µM) was 32.8% and the viability, T/C (second compound 0.00949 µM, first compound 0.316 µM) was 29.7%. For the same molecule, the viability, T/C (second compound 0.00949 µM, first compound 1 µM) was 19.1%, the viability, T/C (second compound 0.00949 µM, first compound 3.16 µM) was 16.3% and the viability, T/C (second compound 0.00949 µM, first compound 10 µM) was 10.7%. It also gave a viability, T/C (second compound 0.03 µM, first compound 0.0316 µM) of 34.5%, a viability, T/C (second compound 0.03 µM, first compound 0.1 µM) of 27.7% and a viability, T/C (second compound 0.03 µM, first compound 0.316 µM) of 21.2%. The viability, T/C (second compound 0.03 µM, first compound 1 µM) was 12%, the viability, T/C (second compound 0.03 µM, first compound 3.16 µM) was 11.2% and the viability, T/C (second compound 0.03 µM, first compound 10 µM) was 6.45%. The viability, T/C (second compound 0.0949 µM, first compound 0.0316 µM) was 27.4%, the viability, T/C (second compound 0.0949 µM, first compound 0.1 µM) was 19.4% and the viability, T/C (second compound 0.0949 µM, first compound 0.316 µM) was 12%. The viability, T/C (second compound 0.0949 µM, first compound 1 µM) was 13%, the viability, T/C (second compound 0.0949 µM, first compound 3.16 µM) was 8.97% and the viability, T/C (second compound 0.0949 µM, first compound 10 µM) was 5.82%. It also gave a viability, T/C (second compound 0.3 µM, first compound 0.0316 µM) of 20.6%, a viability, T/C (second compound 0.3 µM, first compound 0.1 µM) of 14.2% and a viability, T/C (second compound 0.3 µM, first compound 0.316 µM) of 12.9%. For the same molecule, the viability, T/C (second compound 0.3 µM, first compound 1 µM) was 8.03%, the viability, T/C (second compound 0.3 µM, first compound 3.16 µM) was 7.08% and the viability, T/C (second compound 0.3 µM, first compound 10 µM) was 4.92%.
